Measurements: ChEMBL document CHEMBL1201862, “PubChem BioAssay data set” (2004)
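Each compound was tested at five concentrations against cells in 96-well plates for 48 hours. Here, GI50 denotes the concentration required for 50% inhibition of growth.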 Active and inactive are the calls of the source. No stated cut-off is given here; in the data, active = GI50 up to about 1.1 µM and inactive = higher.

Tests used:
Experiment in all cases: growth of human tumour cells (NCI), 48 h
MDA-MB-435 = test system: MDA-MB-435
A549 = test system: A549
HT-29 = test system: HT-29
MOLT-4 = test system: MOLT-4
ACHN = test system: ACHN
HCC 2998 = test system: HCC 2998
UACC-62 = test system: UACC-62
Hs-578T = test system: Hs-578T
NCI-H460 = test system: NCI-H460
U-251 = test system: U-251
PC-3 = test system: PC-3
M14 = test system: M14
EKVX = test system: EKVX
KM12 = test system: KM12
MDA-MB-231 = test system: MDA-MB-231
K562 = test system: K562
UACC-257 = test system: UACC-257
CAKI-1 = test system: CAKI-1
IGROV-1 = test system: IGROV-1
TK-10 = test system: TK-10

Compound | GI50 (MDA-MB-435) | GI50 (A549) | GI50 (HT-29) | GI50 (MOLT-4) | GI50 (ACHN) | GI50 (HCC 2998) | GI50 (UACC-62) | GI50 (Hs-578T) | GI50 (NCI-H460) | GI50 (U-251) | GI50 (PC-3) | GI50 (M14) | GI50 (EKVX) | GI50 (KM12) | GI50 (MDA-MB-231) | GI50 (K562) | GI50 (UACC-257) | GI50 (CAKI-1) | GI50 (IGROV-1) | GI50 (TK-10)
CCOc1cc(CCNC)c2c(ccc3ccc(OC)c(O)c32)c1OC | 12.6 µM (inactive) | 19.3 µM (inactive) | 14.8 µM (inactive) | 5.82 µM (inactive) | 13.6 µM (inactive) | 15.5 µM (inactive) | 15.8 µM (inactive) | 17.4 µM (inactive) | 14.1 µM (inactive) | 18.3 µM (inactive) | 13.2 µM (inactive) | 13.9 µM (inactive) | 19.3 µM (inactive) | 11.9 µM (inactive) | 13.4 µM (inactive) | 17 µM (inactive) | 13.1 µM (inactive) | 17.5 µM (inactive) | 13.9 µM (inactive) | 18 µM (inactive)
CCC(CC)C(=O)OC[n+]1cccc(-c2c(COC(=O)NC(C)C)c(COC(=O)NC(C)C)c3n2CCC3)c1 | > 100 µM (inactive) | > 100 µM (inactive) | > 100 µM (inactive) | 33.3 µM (inactive) | 40.8 µM (inactive) | > 100 µM (inactive) | 46.6 µM (inactive) | 50.7 µM (inactive) | 45.8 µM (inactive) | > 100 µM (inactive) | > 100 µM (inactive) | 56.9 µM (inactive) | > 100 µM (inactive) | > 100 µM (inactive) | > 100 µM (inactive) | 97.5 µM (inactive) | > 100 µM (inactive) | 49.4 µM (inactive) | > 100 µM (inactive) | > 100 µM (inactive)
O=C(NNC(=S)Nc1ccccc1)C12CC3CC(CC(C3)C1)C2 | 23.7 µM (inactive) | 19.9 µM (inactive) | 21.3 µM (inactive) | 10 µM (inactive) | 20.3 µM (inactive) | 30.9 µM (inactive) | 13.7 µM (inactive) | > 74.3 µM (inactive) | 7.23 µM (inactive) | 12.9 µM (inactive) | 18.2 µM (inactive) | 13.8 µM (inactive) | 36 µM (inactive) | 43.2 µM (inactive) | 40 µM (inactive) | 12.7 µM (inactive) | 31.7 µM (inactive) | 21.9 µM (inactive) | 25.1 µM (inactive) | 39.5 µM (inactive)
CCC(CS(=O)(=O)O)[N+](=O)[O-] (stereo not given) | > 100 µM (inactive) | > 100 µM (inactive) | > 100 µM (inactive) | > 100 µM (inactive) | > 100 µM (inactive) | > 100 µM (inactive) | > 100 µM (inactive) | > 100 µM (inactive) | > 100 µM (inactive) | > 100 µM (inactive) | > 100 µM (inactive) | > 100 µM (inactive) | > 100 µM (inactive) | > 100 µM (inactive) | > 100 µM (inactive) | > 100 µM (inactive) | > 100 µM (inactive) | > 100 µM (inactive) | > 100 µM (inactive) | > 100 µM (inactive)
CCN(CC)CCNc1ccc2nnn3c4ccc(O)cc4c(=O)c1c23 | 3.56 µM (inactive) | 0.161 µM (active) | 3.33 µM (inactive) | 0.0407 µM (active) | 0.745 µM (active) | 1.52 µM (inactive) | 8.39 µM (inactive) | 10.7 µM (inactive) | 0.0314 µM (active) | 2.86 µM (inactive) | 3.09 µM (inactive) | 6.65 µM (inactive) | 6.98 µM (inactive) | 1.01 µM (active) | 0.0361 µM (active) | 1.62 µM (inactive) | 12.2 µM (inactive) | 0.69 µM (active) | 4.01 µM (inactive) | 5.56 µM (inactive)
